Measured values reported in paper PMC11217419, “TRP14 is the rate-limiting enzyme for intracellular cystine reduction and regulates proteome cysteinylation” (The EMBO Journal, 2024).

Molecular target: T1, TXDC-17 (C. elegans TRP14) (Caenorhabditis elegans, UniProt Q9BL27)
T1 construct: recombinant, purified with the same methodologies as the human orthologue
T1 sequence (Q9BL27 1-132): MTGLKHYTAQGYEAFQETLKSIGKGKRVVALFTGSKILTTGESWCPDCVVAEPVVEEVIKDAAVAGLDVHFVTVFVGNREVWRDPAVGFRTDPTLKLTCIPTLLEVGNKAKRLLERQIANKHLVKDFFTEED
Experiment: coupled cystine reduction assay with C. elegans TRXR-1
Type: biochemical
Conditions: with C. elegans TRXR-1 as reductase

With `N[C@@H](CSSC[C@H](N)C(=O)O)C(=O)O` [cystine] the “coupled cystine reduction assay with C. elegans TRXR-1” value was “TXDC-17, together with its native reductase, could efficiently reduce cystine in vitro”.
